The numbers were not newly measured in article PMC11975010 (Drug Design, Development and Therapy, 2025), which cites them from elsewhere.

Like-named read-outs stand apart in the source and are kept apart here.

The conditions of series [1]: poor solubility in water and high permeability.
Test in series [2]: not given
This is another data set of the same source.

For series [3] the following is noted: at 25 °C.
The conditions of series [4]: administered as HP-β-CD complex formulation.

On to `COc1ccc(CN=c2[nH]c(N3CCC[C@H]3CO)ncc2C(=O)NCc2ncccn2)cc1Cl` [AVA, Avanafil], for which the Action duration result is on record as “up to 12 hours”. For the same compound, in series [1], the “Biopharmaceutical Classification System class” value was “class II”. Regarding `CC[C@@]1(O)C(=O)OCc2c1cc1n(c2=O)Cc2cc3ccccc3nc2-1` [camptothecin], the Lactone ring hydrolysis is 40% in series [2] (before stabilization in HP-β-CD) and 6.7% in series [2] (stabilized in HP-β-CD cavities). On to `CC(O)COC[C@H]1O[C@@H]2O[C@H]3[C@H](O)[C@@H](O)[C@@H](O[C@H]4[C@H](O)[C@@H](O)[C@@H](O[C@H]5[C@H](O)[C@@H](O)[C@@H](O[C@H]6[C@H](O)[C@@H](O)[C@@H](O[C@H]7[C@H](O)[C@@H](O)[C@@H](O[C@H]8[C@H](O)[C@@H](O)[C@@H](O[C@H]1[C@H](O)[C@H]2O)O[C@@H]8COCC(C)O)O[C@@H]7COCC(C)O)O[C@@H]6COCC(C)O)O[C@@H]5COCC(C)O)O[C@@H]4COCC(C)O)O[C@@H]3COCC(C)O` (stereo partly drawn) [HP-β-CD, hydroxypropyl-beta-cyclodextrin], for which, in series [3], the Aqueous solubility result is recorded as “approximately 600 mg/mL”. For `C[C@@H]1C[C@H]2[C@@H]3CCC4=CC(=O)C=C[C@]4(C)[C@@]3(F)[C@@H](O)C[C@]2(C)[C@@]1(O)C(=O)CO` [dexamethasone], the Clearance entry in series [4] is on record as “lower clearance”.
